Measurements: patent US20030055106A1, “Therapeutic uses of peroxometallic compounds” (priority 1999, published 2003)

Columns and labels:
[1] = system: PC3 prostate cancer cells; experiment: In vitro collagen-fibrin tumor progression model, PC-3; assay type: cell-based, human; conditions: renewed daily, 15 days
Procedure: FIG. 11: Illustration of the antitumor activity of bpV(phen) in vitro using PC3 prostate cancer cells. Collagen gels containing the PC3 cells were prepared according to the method of Esdale and Bard (1972). Briefly, stock collagen solution (3.5 mg/ml in acetic acid 0.02N; Rat tail) was added to a mixture composed of culture medium (5×), fetal bovine serum (FBS), bicarbonate (0.26M), and was neutralized with 0.1N NaOH. A cell suspension (1.42×10^6 cells/ml) was mixed into the collagen-medium mixture to obtain a final concentration of 2.5×10^5 cells/ml.
A DMEM medium, having a normal concentration of glucose and without phenol red, was used. After gelification (within 1 h) of the collagen mixture containing the cells, the gels were removed from their culture wells (mould) and interwoven into a receptor hole prepared in a fibrin gel, as previously described (103). The fibrin gel was made from a 0.3% fibrinogen solution in Hank's balanced salt solution. Fibrin was allowed to polymerize with thrombin (stock solution at 1.75 mg/ml) at a ratio of 1:003 v/v fibrin to thrombin. The collagen-fibrin complexes were then covered with serum-supplemented medium according to the cell types. An inhibitor of plasminogen activator (Trasylol, Parke Davies) was added into the medium at 10 μl/ml (100U/ml).
Cell behavior was periodically monitored over 15 days of culture. […]

[2] = system: air pouch exudates (leukocyte recruitment, pro-inflammatory mediators); experiment: Murine air pouch model, L. major intra-pouch injection; assay type: in vivo, BALB/c mice
Procedure: FIG. 6: Neutrophils, eosinophils and MØ recruited in air pouch exudates of bpV(phen)-treated BALB/c mice in response to L. major promastigotes intra-pouch injection. Air pouch exudates were collected from animals injected with endotoxin-free PBS, LPS (20 μg/ml), L. major and bpV(phen) (500 nM i.p., 2 hour)+L. major, 6 hr post-inoculation. Each time point represents the mean±SD (n=4 mice) of 2 experiments similarly performed.
FIG. 7: In vivo Leishmania-induced pro-inflammatory mediator generations in pV-treated mice. (A) Nitrate level determination in air pouch exudates collected 6 hr post-inoculation of endotoxin-free PBS, L. major and bpV(phen) followed by L. major has been performed. Values are the mean±SEM of 2 experiments performed independently. (B) Evaluation of pro-inflammatory cytokines (IL-6 and IL-1β) and chemokines (MCP-1 and MIP-2) secreted in air pouch exudates collected as described above were measured by ELISA as described in more detail below. Values are the mean±SEM of 2 experiments performed independently. […] IL-6, IL-1β, MCP-1 and MIP-2 secretion were respectively 12.8-, 2-, 8- and 6.8-time more secreted in L. major -injected bpV(phen)-treated animals compared to L. major alone. PBS control was equal to background.
With the use of a murine air pouch model, we investigated early inflammatory events that occur following L. major skin injection in bpV(phen)-treated animals (FIG. 6).
In parallel to this experiment, in vivo generation of Leishmania-induced NO and pro-inflammatory mediators in bpV(phen)-treated mice were measured in air pouch exudates (FIG. 7).

[3] = system: endothelial cells having invaded Matrigel plugs; experiment: In vivo s.c. Matrigel plug assay; parameters: species or system C57B1/6N female mice; conditions: daily i.p. administration of 10 μg/mice or higher doses, day 1 to day 7
Procedure: FIG. 5: bpV(phen) inhibits angiogenesis in vivo in the s.c. Matrigel assay. Graph showing the results of an experiment expressed as the number of cells that migrated in three microscopic fields for each s.c. Matrigel plug. Fields were equidistant from the edge of the plug. […] (2) Four mice that received daily administration of 10 μg bpV(phen) during the 7 days post-implantation. (3) Four mice that received daily administration of 50 μg bpV(phen) during the 7 days post-implantation. (4) Four mice that received daily administration of 100 μg bpv(phen) during the 7 days post-implantation. (5) Four mice that received daily administration of PBS during the 7 days post-implantation.
This assay was performed as previously described (107). Briefly, Matrigel (liquid at 4° C.) was mixed with 200 ng/ml ECGS and injected s.c. into four C57B1/6N female mice (1 ml/mice). After injection, the Matrigel polymerized to form a plug. After 7 days, the animals were sacrified, and the Matrigel plugs were removed and fixed in 10% neutral-buffered formalin solution (Sigma Chemical Co.) and embedded in paraffin. Histological sections were stained with Masson's trichrome and angiogenesis was scored by counting the number of cells that migrated in three microscopic fields for each s.c. Matrigel plug.
Experiments were performed to determine whether bpV(phen) inhibits vessel formation in vivo. […]

[4] = L. major-injected bpV(phen)-treated animals, 6 hr, ELISA
[5] = bpV(phen)-treated + L. major, 6 hr

**Q.** `O.O.O.OO.OO.[K+].[OH-].[V].c1cnc2c(c1)ccc1cccnc12` [bpV(phen), potassium bisperoxo(1,10-phenanthroline)oxovanadate] was tested. Which “progression of PC-3 cells (secondary tumors, migration front)” value ([1]; 2 μM) did it give?
**A.** a decrease in the size of the secondary tumor was observed

**Q.** And the “progression of PC-3 cells (secondary tumors, migration front)” value ([1]; 5 and 10 μM)?
**A.** there was no migration front and there were no secondary tumors

**Q.** What about the “NO generation (nitrate level) in air pouch exudates in response to L. major infection” value ([2]; 6 hr post-inoculation) of the same compound?
**A.** enhanced generation

**Q.** And the “IL-1β secretion in air pouch exudates, compared to L. major alone” value [2, 4]?
**A.** 2 time

**Q.** What about the “IL-6 secretion in air pouch exudates, compared to L. major alone” value [2, 4] of the same compound?
**A.** 12.8 time

**Q.** And the “MCP-1 secretion in air pouch exudates, compared to L. major alone” value [2, 4]?
**A.** 8 time

**Q.** And the “MIP-2 secretion in air pouch exudates, compared to L. major alone” value [2, 4]?
**A.** 6.8 time

**Q.** What about the “recruitment of cells in air pouch exudates” value ([2]; bpV(phen) 500 nM i.p., 2 hour + L. major 10^7 parasites/ml, 6 hours post-injection, vs L. major alone) of the same compound?
**A.** five times greater

**Q.** What about the “recruited leukocytes that were eosinophils” value [2, 5] of the same compound?
**A.** 18%

**Q.** What about the “recruited leukocytes that were macrophages” value [2, 5] of the same compound?
**A.** 12%

**Q.** What about the “recruited leukocytes that were neutrophils” value [2, 5] of the same compound?
**A.** ~70%

**Q.** And the “number of endothelial cells having invaded Matrigel plugs” value [3]?
**A.** decreased by half
